Measured values reported in PubChem BioAssay AID2060910 (Molecular Pharmacology Branch, DTP, NCI, 2025).
Each block holds one molecule with its values, some of them ahead of it.

Test system: 242566-281-R-J2-PDC complex spheroid viability
Experiment: Anticancer human tumor 242566-281-R-J2-PDC patient-derived pancreatic carcinoma cell line growth inhibition [RAS]
Conditions: for IC50: curve of first compound; for viability, T/C: stronger effect = lower value
Source text: RAS pathway inhibitors in Combinations in Complex Spheroids
A high-throughput screen of multi-cell type tumor spheroids was designed to identify active combinations of RAS pathway inhibitors and targeted small molecules. Complex spheroids include a stromal component modeled by human endothelial cells (HUVEC) and fibroblasts modeled by human mesenchymal stem cells (MSCs). The concentration ranges selected for each drug and investigational agent were based upon clinically achievable concentrations if the clinical Cmax of the agent was known.
Compounds. The drugs and investigational agents: abemaciclib (NSC768073), cobimetinib (NSC768068), divarasib (GDC6063, NSC841802), docetaxel (NSC628503), GDC-1971 (RLY-1971, NSC841576), gemcitabine (NSC613327), inavolisib (NSC800729), ipatasertib (NSC767898), KB-0742 (NSC834161), MRTX-1133 (NSC836407), osimertinib (NSC779217), RMC-4630 (NSC839698), RMC-6236 (NSC851965), RMC-6291 (NSC852671), Ro-3306 (NSC812927), sapanisertib (NSC764658), SN-38 (NSC673596), staurosporine (NSC755774), SY5609 (NSC837396), and tovorafenib (DAY101, NSC766906), were obtained from the National Cancer Institute (NCI) Developmental Therapeutics Program Chemical Repository. The FDA-approved anticancer drug set is available from the NCI Developmental Therapeutics Program. […] The stock solutions were prepared in dimethyl sulfoxide (DMSO, Sigma-Aldrich, St. Louis, MO, cat. D2650) at 800-fold the tested concentration and stored at -70 degrees C prior to their use. All drugs and investigational agents were tested over a range starting from a high concentration at or near the clinical Cmax and decreasing in half-log increments. If the clinical Cmax for an agent had not been determined, the highest concentration tested was 10 microM.
Cell Culture. All cells were maintained in an incubator at 37 degrees C and 5% CO2 with 95% humidity. The PDC lines were cultured according to standard operating procedures established by the NCI PDMR. All PDCs were thawed and cultured in Matrigel-coated flasks prepared with a working solution of 1X Ham's F-12 nutrient mix, without supplementation (Invitrogen, Waltham, MA, cat. 11765054), 100 U/mL penicillin-streptomycin (Invitrogen, cat. 15140122), and 2.5% Matrigel (Corning Inc., Corning, NY, cat. 354248) for the first three passages. The 362531-283-R-J2-PDC and 782815-120-R-J1-PDC lines were cultured in 6C/Colon 1B media, which includes advanced DMEM/F-12 (Thermo Fisher Scientific, cat. 12634028), 10 mM HEPES (Thermo Fisher Scientific, cat. 15630080), 1X GlutaMAX supplement (Thermo Fisher Scientific, cat. 35050061), 0.1 mg/mL primocin (InvivoGen, San Diego, CA, cat. ant-pm-2), 10% defined fetal bovine serum, heat inactivated (HyClone Laboratories Inc., Logan, UT, cat. SH30070.03HI), 50% L-WRN conditioned media (ATCC, cat. CRL-3276), 1.25 mM N-Acetyl-L-cysteine (Sigma-Aldrich, cat. A9165), 10 mM nicotinamide (Sigma-Aldrich, cat. N0636), 1X B-27 supplement (Thermo Fisher Scientific, cat. 17504044), 1X N-2 supplement (Thermo Fisher Scientific, cat. 17502048), 50 ng/mL human EGF (Thermo Fisher Scientific, cat. PHG0311), and 10 microM Y-27632 dihydrochloride (Tocris Bioscience, cat. 1254). The K12877-001-R-J1-PDC line was cultured in 6I media, which includes all 6C/Colon 1B media plus 10 ng/mL human FGF-10 (PeproTech, cat. 100-26), 1 ng/mL human FGF-2 (PeproTech, cat. 100-18B), 1 µM prostaglandin E2 (Tocris Bioscience, cat. 2296), […] hydrocortisone (Sigma-Aldrich, cat. H4001), and […] bovine insulin (Sigma-Aldrich, cat. I6634). The K86415-001-R-J1-PDC line was cultured in 6D media, which includes all 6C/Colon 1B media components minus the L-WRN conditioned media. The 485176-168-R4-J1-PDC was cultured in PANC media, which includes all 6C/Colon 1B media plus 100 ng/mL human FGF-10 (PeproTech, cat. 100-26), 500 nM SB-431542 (Selleckchem, cat. S1067), and 10 nM gastrin (Tocris Bioscience, cat. 3006). […]

[1] = second compound 0.0316 µM, first compound 0.0316 µM
[2] = second compound 0.0316 µM, first compound 0.1 µM
[3] = second compound 0.0316 µM, first compound 0.316 µM
[4] = second compound 0.0316 µM, first compound 1 µM
[5] = second compound 0.0316 µM, first compound 3.16 µM
[6] = second compound 0.0316 µM, first compound 10 µM
[7] = second compound 0.1 µM, first compound 0.0316 µM
[8] = second compound 0.1 µM, first compound 0.1 µM
[9] = second compound 0.1 µM, first compound 0.316 µM
[10] = second compound 0.1 µM, first compound 1 µM
[11] = second compound 0.1 µM, first compound 3.16 µM
[12] = second compound 0.1 µM, first compound 10 µM
[13] = second compound 0.316 µM, first compound 0.0316 µM
[14] = second compound 0.316 µM, first compound 0.1 µM
[15] = second compound 0.316 µM, first compound 0.316 µM
[16] = second compound 0.316 µM, first compound 1 µM
[17] = second compound 0.316 µM, first compound 3.16 µM
[18] = second compound 0.316 µM, first compound 10 µM
[19] = second compound 1 µM, first compound 0.0316 µM
[20] = second compound 1 µM, first compound 0.1 µM
[21] = second compound 1 µM, first compound 0.316 µM
[22] = second compound 1 µM, first compound 1 µM
[23] = second compound 1 µM, first compound 3.16 µM
[24] = second compound 1 µM, first compound 10 µM
[25] = second compound 3.16 µM, first compound 0.0316 µM
[26] = second compound 3.16 µM, first compound 0.1 µM
[27] = second compound 3.16 µM, first compound 0.316 µM
[28] = second compound 3.16 µM, first compound 1 µM
[29] = second compound 3.16 µM, first compound 3.16 µM
[30] = second compound 3.16 µM, first compound 10 µM
[31] = second compound 10 µM, first compound 0.0316 µM
[32] = second compound 10 µM, first compound 0.1 µM
[33] = second compound 10 µM, first compound 0.316 µM
[34] = second compound 10 µM, first compound 1 µM
[35] = second compound 10 µM, first compound 3.16 µM
[36] = second compound 10 µM, first compound 10 µM
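Note: spheroids exposed to compound for 7 days before readout.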
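Throughout, for viability, T/C: 100% = DMSO vehicle control wells.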

- IC50 (second compound 0.0316 µM): 7270 nM
- IC50 (second compound 0.1 µM): 2950 nM
- IC50 (second compound 0.316 µM): 1750 nM
- IC50 (second compound 1 µM): 701 nM
- IC50 (second compound 3.16 µM): 404 nM
- IC50 (second compound 10 µM): 392 nM
SMILES: CC(C)NCC(C(=O)N1CCN(c2ncnc3c2C(C)CC3O)CC1)c1ccc(Cl)cc1 (centres undefined) + C#Cc1c(F)ccc2cc(O)cc(-c3ncc4c(N5CC6CCC(C5)N6)nc(OCC56CCCN5CC(F)C6)nc4c3F)c12
- viability, T/C [1]: 74.9%
- viability, T/C [2]: 116%
- viability, T/C [3]: 86.2%
- viability, T/C [4]: 84.8%
- viability, T/C [5]: 66.6%
- viability, T/C [6]: 43.7%
- viability, T/C [7]: 97.8%
- viability, T/C [8]: 78.6%
- viability, T/C [9]: 74.5%
- viability, T/C [10]: 54.8%
- viability, T/C [11]: 58%
- viability, T/C [12]: 34.5%
- viability, T/C [13]: 81.2%
- viability, T/C [14]: 81.1%
- viability, T/C [15]: 64.9%
- viability, T/C [16]: 55%
- viability, T/C [17]: 45.8%
- viability, T/C [18]: 23.9%
- viability, T/C [19]: 71.8%
- viability, T/C [20]: 68.3%
- viability, T/C [21]: 59.4%
- viability, T/C [22]: 41.4%
- viability, T/C [23]: 37.5%
- viability, T/C [24]: 18.4%
- viability, T/C [25]: 62.8%
- viability, T/C [26]: 64.2%
- viability, T/C [27]: 53.9%
- viability, T/C [28]: 34.5%
- viability, T/C [29]: 24.8%
- viability, T/C [30]: 16.4%
- viability, T/C [31]: 61.6%
- viability, T/C [32]: 59.6%
- viability, T/C [33]: 52.7%
- viability, T/C [34]: 38.1%
- viability, T/C [35]: 22%
- viability, T/C [36]: 14.3%

- IC50 (second compound 0.0316 µM): 437 nM
- IC50 (second compound 0.1 µM): 184 nM
- IC50 (second compound 0.316 µM): 106 nM
- IC50 (second compound 1 µM): 60.3 nM
- IC50 (second compound 3.16 µM): < 31.6 nM
- IC50 (second compound 10 µM): < 31.6 nM
SMILES: CC(Nc1ccc2c(c1)OCCn1cc(N3C(=O)OCC3C(F)F)nc1-2)C(N)=O (centres undefined) + C#Cc1c(F)ccc2cc(O)cc(-c3ncc4c(N5CC6CCC(C5)N6)nc(OCC56CCCN5CC(F)C6)nc4c3F)c12
- viability, T/C [1]: 101%
- viability, T/C [2]: 82.8%
- viability, T/C [3]: 56.6%
- viability, T/C [4]: 32.5%
- viability, T/C [5]: 22.3%
- viability, T/C [6]: 14.2%
- viability, T/C [7]: 75%
- viability, T/C [8]: 63.7%
- viability, T/C [9]: 37.3%
- viability, T/C [10]: 22.4%
- viability, T/C [11]: 13.2%
- viability, T/C [12]: 8.11%
- viability, T/C [13]: 68%
- viability, T/C [14]: 51.2%
- viability, T/C [15]: 24.8%
- viability, T/C [16]: 8.79%
- viability, T/C [17]: 7.1%
- viability, T/C [18]: 4.15%
- viability, T/C [19]: 58.1%
- viability, T/C [20]: 43.7%
- viability, T/C [21]: 23%
- viability, T/C [22]: 9.54%
- viability, T/C [23]: 6.78%
- viability, T/C [24]: 3.29%
- viability, T/C [25]: 46.5%
- viability, T/C [26]: 39.2%
- viability, T/C [27]: 14%
- viability, T/C [28]: 9.39%
- viability, T/C [29]: 5.47%
- viability, T/C [30]: 3.71%
- viability, T/C [31]: 44%
- viability, T/C [32]: 32.7%
- viability, T/C [33]: 19.8%
- viability, T/C [34]: 6.3%
- viability, T/C [35]: 5.27%
- viability, T/C [36]: 2.24%
